Source: patent publication US20190060473A1, “HSP90 INHIBITOR DRUG CONJUGATES” (priority 2016, published 2019)

Key:
[1] = test system: HER2 expression in BT-474 human breast cancer cells; experiment: In-Cell Western assay (ICW) for HER2 expression in BT-474 cells; format: cell-based; conditions: BT-474 cells, 24 h incubation, 3-fold serial dilutions, HER2 signal normalized to DRAQ5; read-out: HER2 (ICW)
Description: The HDCs as described herein were used in various experiments to determine their activity and properties, such as binding affinity and stability in blood. An in-Cell Western assay (ICW) for HER2 expression was carried out in BT-474 human breast cancer cells. BT-474 cells were seeded in 96-well plates at a density of 20,000 cells per well. Twenty-four hours after plating, cells were dosed with graded concentrations of HDCs using 3-fold serial dilutions and incubated for 24 h. Growth media containing drug was aspirated off. Cells were then fixed in 4% paraformaldehyde for 20 min and washed three times in 0.1% Triton X-100. After blocking for 1.5 h in Odyssey Blocking Buffer (LI-COR, Lincoln, Nebr., USA), cells were incubated with primary HER2 antibody overnight at 4° C. Wells were washed three times with 0.1% Tween-20 and incubated in secondary antibody (LI-COR, Lincoln, Nebr., USA) and DRAQ5 (CST, Beverly, Mass., USA) for 1 h. Following 3 final washes with 0.1% Tween-20, antibody-antigen complexes were visualized using the Odyssey system. For quantification, HER2 signal was normalized to DRAQ5 flourescent probe.

[2] = Metabolic stability in mouse whole blood (LC-MS/MS); format: in vitro ADME; conditions: mouse whole blood, 10 μM, percent of test compound remaining after 1 hour, average of duplicate
Description: Metabolic stability of various HDCs was tested in mouse blood. All compounds were tested at a concentration of 10 μM. The time dependent disappearance of test compound in mouse whole blood, and the release of the compound qualitatively as determined by liquid chromatography tandem mass spectrometry (LC-MS/MS), was tested at time points of 15 minutes, 30 minutes, 45 minutes and 1 hour. All compounds were tested in duplicate, and the average was taken. The results in Table 2 show the percent of test compound remaining after 1 hour.

[3] = biological target: Hsp90; experiment: Binding affinity (Kd) by standard methods
Description: Finally, binding affinity (Kd) was determined for various HDCs using standard methods.

Structure (SMILES) | IC50 [1] [nM] | Mouse blood stability 1 h (% remaining) [2] [%] | Kd [3] [nM]
CCNC(=O)c1nnc(-c2cc(C(C)C)c(O)cc2O)n1-c1ccc(CN2CCC(C(=O)N3CCC(C(=O)OC[C@@H](NC(=O)c4cc(-c5cc(NC(C)C)ncc5Cl)c[nH]4)c4cccc(Cl)c4)CC3)CC2)c(F)c1 [SDC-TRAP-0510, (S)-2-(4-(5-chloro-2-(isopropylamino)pyridin-4-yl)-1H-pyrrole-2-carboxamido)-2-(3-chlorophenyl)ethyl 1-(1-(4-(3-(2,4-dihydroxy-5-isopropylphenyl)-5-(ethylcarbamoyl)-4H-1,2,4-triazol-4-yl)-2-fluorobenzyl)piperidine-4-carbonyl)piperidine-4-carboxylate] | 91 | 77.1 | 6.14
CC(C)Nc1cc(-c2c[nH]c(C(=O)N[C@H](COC(=O)C3CCN(C(=O)C4CCN(Cc5ccc(-n6c(O)nnc6-c6cc(C(C)C)c(O)cc6O)cc5F)CC4)CC3)c3cccc(Cl)c3)c2)c(Cl)cn1 [SDC-TRAP-0511, (S)-2-(4-(5-chloro-2-(isopropylamino)pyridin-4-yl)-1H-pyrrole-2-carboxamido)-2-(3-chlorophenyl)ethyl 1-(1-(4-(3-(2,4-dihydroxy-5-isopropylphenyl)-5-hydroxy-4H-1,2,4-triazol-4-yl)-2-fluorobenzyl)piperidine-4-carbonyl)piperidine-4-carboxylate] | 465 | 30.8 | 2.9
CC(C)Nc1cc(-c2c[nH]c(C(=O)N[C@H](COC(=O)CC3CCN(C(=O)C4CCN(Cc5ccc(-n6c(O)nnc6-c6cc(C(C)C)c(O)cc6O)cc5F)CC4)CC3)c3cccc(Cl)c3)c2)c(Cl)cn1 [SDC-TRAP-0513, (S)-2-(4-(5-chloro-2-(isopropylamino)pyridin-4-yl)-1H-pyrrole-2-carboxamido)-2-(3-chlorophenyl)ethyl 2-(1-(1-(4-(3-(2,4-dihydroxy-5-isopropylphenyl)-5-hydroxy-4H-1,2,4-triazol-4-yl)-2-fluorobenzyl)piperidine-4-carbonyl)piperidin-4-yl)acetate] | 519 | 48.2 | 0.88
CCNC(=O)c1nnc(-c2cc(C(C)C)c(O)cc2O)n1-c1ccc(CN2CCC(C(=O)N3CC(C(=O)OC[C@@H](NC(=O)c4cc(-c5cc(NC(C)C)ncc5Cl)c[nH]4)c4cccc(Cl)c4)C3)CC2)c(F)c1 [SDC-TRAP-0515, (S)-2-(4-(5-chloro-2-(isopropylamino)pyridin-4-yl)-1H-pyrrole-2-carboxamido)-2-(3-chlorophenyl)ethyl 1-(1-(4-(3-(2,4-dihydroxy-5-isopropylphenyl)-5-(ethylcarbamoyl)-4H-1,2,4-triazol-4-yl)-2-fluorobenzyl)piperidine-4-carbonyl)azetidine-3-carboxylate] | 181 | 30 | 0.97
CCNC(=O)c1nnc(-c2cc(C(C)C)c(O)cc2O)n1-c1ccc(CN2CCC(C(=O)N3CC[C@H](C(=O)OC[C@@H](NC(=O)c4cc(-c5cc(NC(C)C)ncc5Cl)c[nH]4)c4cccc(Cl)c4)C3)CC2)c(F)c1 [SDC-TRAP-0516, (S)-(S)-2-(4-(5-chloro-2-(isopropylamino)pyridin-4-yl)-1H-pyrrole-2-carboxamido)-2-(3-chlorophenyl)ethyl 1-(1-(4-(3-(2,4-dihydroxy-5-isopropylphenyl)-5-(ethylcarbamoyl)-4H-1,2,4-triazol-4-yl)-2-fluorobenzyl)piperidine-4-carbonyl)pyrrolidine-3-carboxylate] | 123 | 55.5 | 1.29
CCNC(=O)c1nnc(-c2cc(C(C)C)c(O)cc2O)n1-c1ccc(C(=O)N(C)[C@@H](C(=O)N[C@H](C(=O)N(C)C([C@@H](C)CC)[C@@H](CC(=O)N2CCC[C@@H]2[C@@H](OC)[C@@H](C)C(=O)N[C@@H](C)[C@H](O)c2ccccc2)OC)C(C)C)C(C)C)cc1 (stereo partly drawn) [SDC-TRAP-0536, 5-(2,4-dihydroxy-5-isopropylphenyl)-N-ethyl-4-(4-(((2R)-1-(((2S)-1-(((3R,5S)-1-((R)-2-((1S,2R)-3-(((1R,2S)-1-hydroxy-1-phenylpropan-2-yl)amino)-1-methoxy-2-methyl-3-oxopropyl)pyrrolidin-1-yl)-3-methoxy-5-methyl-1-oxoheptan-4-yl)(methyl)amino)-3-methyl-1-oxobutan-2-yl)amino)-3-methyl-1-oxobutan-2-yl)(methyl)carbamoyl)phenyl)-4H-1,2,4-triazole-3-carboxamide] |  |  | 0.77
